Values joined by “and” are separate entries in the source; they are usually repeats but may differ in a detail not shown here. Identical values can stand only once. Where a SMILES comes first, the peptide text is derived from it. [ ]: non-standard residue; d: D form. Hyp = O=C(O)[C@@H]1C[C@@H](O)CN1
System: IFN-gamma
Assay: Example 9 Luminex, LPS hPBMCs: IFN-gamma
Type: cell-based, human
Procedure: Treatment Human PBMCs were pretreated with YY-101, YDE-011 and YDE-043 or reference compound; Xiidra® at various concentration (ranging from 1 nM to 100 uM) for 2 h before stimulation. An equal volume of 0.5% DMSO was used as a vehicle control. Then, the cells were treated with LPS at 5 ug/ml. The supernatants from treated cells were harvested at 24 h and placed in a 96 well for Luminex cytokine & chemokine profiling using a Luminex 200 multiplex assay (Luminex; R&D system, USA).
The main study arm with triplicate wells per group in a 24-well plate: • 1. Blank • 2. PBMC: 0.5% DMSO • 3. PBMC+LPS (5 ug/ml) • 4. PBMC+YY-101 100 uM • 5. PBMC+YY-101 10 uM • 6. PBMC+YY-101 1 uM • 7. PBMC+YY-101 0.1 uM • 8. PBMC+YY-101 0.01 uM • 9. PBMC+LPS (5 ug/ml)+Xiidra®100 uM • 10. PBMC+LPS (5 ug/ml)+Xiidra® 10 uM • 11. PBMC+LPS (5 ug/ml)+Xiidra® 1 uM • 12. PBMC+LPS (5 ug/ml)+Xiidra®0.1 uM • 13. PBMC+LPS (5 ug/ml)+Xiidra®0.01 uM • 14. PBMC+LPS (5 ug/ml)+Xiidra®0.001 uM • 15. PBMC+LPS (5 ug/ml)+YY-101 100 uM • 16. PBMC+LPS (5 ug/ml)+YY-101 10 uM • 17. PBMC+LPS (5 ug/ml)+YY-101 1 uM • 18. PBMC+LPS (5 ug/ml)+YY-101 0.1 uM • 19. PBMC+LPS (5 ug/ml)+YY-101 0.01 uM • 20. PBMC+LPS (5 ug/ml)+YY-101 0.001 uM • 21. PBMC+LPS (5 ug/ml)+YDE-011 100 uM • 22. PBMC+LPS (5 ug/ml)+YDE-011 10 uM • 23. PBMC+LPS (5 ug/ml)+YDE-011 1 uM • 24. PBMC+LPS (5 ug/ml)+YDE-011 0.1 uM • 25. PBMC+LPS (5 ug/ml)+YDE-011 0.01 uM • 26. PBMC+LPS (5 ug/ml)+YDE-011 0.001 uM • 27. PBMC+LPS (5 ug/ml)+YDE-043 100 uM • 28. PBMC+LPS (5 ug/ml)+YDE-043 10 uM • 29. PBMC+LPS (5 ug/ml)+YDE-043 1 uM • 30. PBMC+LPS (5 ug/ml)+YDE-043 0.1 uM • 31. PBMC+LPS (5 ug/ml)+YDE-043 0.01 uM • 32. PBMC+LPS (5 ug/ml)+YDE-043 0.001 uM
Multiplex assay was used to measure 30 cytokines and chemokines. The 1:2, 1:10 and 1:200 diluted cell supernatant and serial dilution of the standard were dispensed into a 96 well plate at 50 ul/well. Then, the pre-mixed cocktail of antibody-coated magnetic beads was dispensed at 50 ul/well and incubated at room temperature for 2 h in a horizontal orbital microplate shaker at 800±500 rpm. The beads were washed using a magnetic device to prevent loss. The biotin-antibody was dispensed in 50 ul of each well and incubated at room temperature for 1 h in a shaker at 800±500 rpm. After washing, streptavidin-PE was added at 50 ul/well and incubated at room temperature for 30 min in a shaker under the same conditions. Finally, after washing, wash buffer (100 ul/well) was added to the plate and incubated in a shaker for 2 min. The Luminex™ 200 setting were set according to the manufacturer's protocol. The data was calculated with a standard five-parameter logistic nonlinear regression analysis of the data (xPonent software 4.2, USA). The levels of cytokine/chemokine are normalized to the live cell counts (1×10^5 cells/mL) and presented as concentrations per mL (pg/mL or ng/mL).

[1] = PBMC + LPS(5 ug/ml) + test article 0.001 uM, Mean
[2] = PBMC + LPS(5 ug/ml) + test article 0.001 uM, single replicates
[3] = PBMC + LPS(5 ug/ml) + test article 0.01 uM, Mean
[4] = PBMC + LPS(5 ug/ml) + test article 0.01 uM, single replicates
[5] = PBMC + LPS(5 ug/ml) + test article 0.1 uM, Mean
[6] = PBMC + LPS(5 ug/ml) + test article 0.1 uM, single replicates
[7] = PBMC + LPS(5 ug/ml) + test article 1 uM, Mean
[8] = PBMC + LPS(5 ug/ml) + test article 1 uM, single replicates
[9] = PBMC + LPS(5 ug/ml) + test article 10 uM, Mean
[10] = PBMC + LPS(5 ug/ml) + test article 10 uM, single replicates
[11] = PBMC + LPS(5 ug/ml) + test article 100 uM, Mean
[12] = PBMC + LPS(5 ug/ml) + test article 100 uM, single replicates
[13] = PBMC + test article 0.01 uM, no LPS, Mean
[14] = PBMC + test article 0.01 uM, no LPS, single replicates
[15] = PBMC + test article 0.1 uM, no LPS, Mean
[16] = PBMC + test article 0.1 uM, no LPS, single replicates
[17] = PBMC + test article 1 uM, no LPS, Mean
[18] = PBMC + test article 1 uM, no LPS, single replicates
[19] = PBMC + test article 10 uM, no LPS, Mean
[20] = PBMC + test article 10 uM, no LPS, single replicates
[21] = PBMC + test article 100 uM, no LPS, Mean
[22] = PBMC + test article 100 uM, no LPS, single replicates

## CC(C)C[C@H](NC(=O)CNC(=O)[C@H](CC(=O)O)NC(=O)[C@H](CCC(N)=O)NC(=O)CNC(=O)[C@@H]1C[C@@H](O)CN1)C(=O)N[C@@H](C)C(=O)NCC(=O)N1CCC[C@H]1C(=O)N[C@@H](CCCCN)C(=O)O [YY-101] (H-[Hyp]GQDGLAGPK-OH; N-terminus and C-terminus assumed)
[1]
  Concentration (IFN-gamma): 2439.1 pg/mL
  conc/live cell (IFN-gamma): 378.6 pg/10^5
[2]
  Concentration (IFN-gamma): 2345.3 pg/mL and 2706.6 pg/mL and 2265.5 pg/mL
  conc/live cell (IFN-gamma): 411.5 pg/10^5 and 381.2 pg/10^5 and 343.3 pg/10^5
[3]
  Concentration (IFN-gamma): 3133.1 pg/mL
  conc/live cell (IFN-gamma): 507.8 pg/10^5
[4]
  Concentration (IFN-gamma): 3435.7 pg/mL and 3322.0 pg/mL and 2641.6 pg/mL
  conc/live cell (IFN-gamma): 536.8 pg/10^5 and 553.7 pg/10^5 and 433.0 pg/10^5
[5]
  Concentration (IFN-gamma): 1841.4 pg/mL
  conc/live cell (IFN-gamma): 313.6 pg/10^5
[6]
  Concentration (IFN-gamma): 2024.2 pg/mL and 1601.1 pg/mL and 1899.0 pg/mL
  conc/live cell (IFN-gamma): 326.5 pg/10^5 and 307.9 pg/10^5 and 306.3 pg/10^5
[7]
  Concentration (IFN-gamma): 2318.4 pg/mL
  conc/live cell (IFN-gamma): 355.2 pg/10^5
[8]
  Concentration (IFN-gamma): 2480.1 pg/mL and 2437.0 pg/mL and 2038.3 pg/mL
  conc/live cell (IFN-gamma): 393.7 pg/10^5 and 343.2 pg/10^5 and 328.8 pg/10^5
[9]
  Concentration (IFN-gamma): 2654.7 pg/mL
  conc/live cell (IFN-gamma): 406.4 pg/10^5
[10]
  Concentration (IFN-gamma): 3058.1 pg/mL and 2593.6 pg/mL and 2312.4 pg/mL
  conc/live cell (IFN-gamma): 509.7 pg/10^5 and 405.2 pg/10^5 and 304.3 pg/10^5
[11]
  Concentration (IFN-gamma): 1939.0 pg/mL
  conc/live cell (IFN-gamma): 333.7 pg/10^5
[12]
  Concentration (IFN-gamma): 1943.2 pg/mL and 2122.4 pg/mL and 1751.5 pg/mL
  conc/live cell (IFN-gamma): 308.4 pg/10^5 and 342.3 pg/10^5 and 350.3 pg/10^5
[13]
  Concentration (IFN-gamma): 20.8 pg/mL
  conc/live cell (IFN-gamma): 4.2 pg/10^5
[14]
  Concentration (IFN-gamma): 12.5 pg/mL and 29.1 pg/mL
  conc/live cell (IFN-gamma): 2.4 pg/10^5 and 6.1 pg/10^5
[15]
  Concentration (IFN-gamma): 20.8 pg/mL
  conc/live cell (IFN-gamma): 3.9 pg/10^5
[16]
  Concentration (IFN-gamma): 12.5 pg/mL and 29.1 pg/mL
  conc/live cell (IFN-gamma): 2.8 pg/10^5 and 5.0 pg/10^5
[17]
  Concentration (IFN-gamma): 18.1 pg/mL
  conc/live cell (IFN-gamma): 3.3 pg/10^5
[18]
  Concentration (IFN-gamma): 12.5 pg/mL and 23.7 pg/mL
  conc/live cell (IFN-gamma): 2.3 pg/10^5 and 4.3 pg/10^5
[19]
  Concentration (IFN-gamma): 50.9 pg/mL
  conc/live cell (IFN-gamma): 8.1 pg/10^5
[20]
  Concentration (IFN-gamma): 67.3 pg/mL and 34.4 pg/mL
  conc/live cell (IFN-gamma): 10.5 pg/10^5 and 5.6 pg/10^5
[21]
  Concentration (IFN-gamma): 36.8 pg/mL
  conc/live cell (IFN-gamma): 5.6 pg/10^5
[22]
  Concentration (IFN-gamma): 49.9 pg/mL and 23.7 pg/mL
  conc/live cell (IFN-gamma): 7.8 pg/10^5 and 3.4 pg/10^5
